Columns and labels:
[1] = Oral bioavailability in Sprague-Dawley rat plasma at 2 mg/kg administered as gastric bolus dose by LC-MS/MS analysis; assay type: ADME, organism-based
[2] = molecular target: T1, Serine/threonine-protein kinase TNNI3K (Homo sapiens, UniProt Q59H18); test: Inhibition of 5-({[2-({[3-({4-[(5-hydroxy-2-methylphenyl)amino]-2-pyrimidinyl}amino)phenyl]carbonyl}amino)-ethyl]amino}carbonyl)-2-(6-hydroxy-3-oxo-3H-xanthen-9-yl)benzoic acid binding to human full length His/MBP-fused TNNI3K expressed in baculovirus expression system after 60 mins by fluorescence polarization assay
T1 sequence (Q59H18 whole entry): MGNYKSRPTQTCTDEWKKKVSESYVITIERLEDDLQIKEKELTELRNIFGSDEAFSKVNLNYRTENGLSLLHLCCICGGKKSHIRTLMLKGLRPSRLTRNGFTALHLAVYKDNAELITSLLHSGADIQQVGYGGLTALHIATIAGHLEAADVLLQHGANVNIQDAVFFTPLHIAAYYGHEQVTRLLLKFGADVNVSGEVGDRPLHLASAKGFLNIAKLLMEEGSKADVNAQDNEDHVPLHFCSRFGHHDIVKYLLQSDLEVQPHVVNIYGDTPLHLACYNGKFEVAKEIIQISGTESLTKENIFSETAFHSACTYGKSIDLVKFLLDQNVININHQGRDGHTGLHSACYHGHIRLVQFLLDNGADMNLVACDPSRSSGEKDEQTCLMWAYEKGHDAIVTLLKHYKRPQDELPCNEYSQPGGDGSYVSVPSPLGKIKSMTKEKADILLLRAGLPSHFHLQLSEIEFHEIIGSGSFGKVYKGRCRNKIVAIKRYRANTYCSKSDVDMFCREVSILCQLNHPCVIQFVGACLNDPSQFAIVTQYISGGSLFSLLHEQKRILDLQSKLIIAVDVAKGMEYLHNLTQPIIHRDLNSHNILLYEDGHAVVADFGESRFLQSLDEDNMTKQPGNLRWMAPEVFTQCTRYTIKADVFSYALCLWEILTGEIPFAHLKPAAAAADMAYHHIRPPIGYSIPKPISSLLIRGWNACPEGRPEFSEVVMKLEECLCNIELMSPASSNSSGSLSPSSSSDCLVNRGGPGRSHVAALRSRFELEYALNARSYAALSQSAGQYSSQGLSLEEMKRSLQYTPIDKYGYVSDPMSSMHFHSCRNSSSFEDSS

Rattus norvegicus = test: Dose normalized AUC in Sprague-Dawley rat plasma at 2 mg/kg, po administered as gastric bolus dose by LC-MS/MS analysis; assay type: ADME, organism-based; settings: in vivo
[3] = Clearance in Sprague-Dawley rat plasma at 1 mg/kg, iv administered as 30 mins infusion by LC-MS/MS analysis; assay type: ADME, organism-based
[4] = molecular target: Epidermal growth factor receptor (Homo sapiens, UniProt P00533); test: Inhibition of EGFR (unknown origin)
Chain of Epidermal growth factor receptor (P00533 whole entry): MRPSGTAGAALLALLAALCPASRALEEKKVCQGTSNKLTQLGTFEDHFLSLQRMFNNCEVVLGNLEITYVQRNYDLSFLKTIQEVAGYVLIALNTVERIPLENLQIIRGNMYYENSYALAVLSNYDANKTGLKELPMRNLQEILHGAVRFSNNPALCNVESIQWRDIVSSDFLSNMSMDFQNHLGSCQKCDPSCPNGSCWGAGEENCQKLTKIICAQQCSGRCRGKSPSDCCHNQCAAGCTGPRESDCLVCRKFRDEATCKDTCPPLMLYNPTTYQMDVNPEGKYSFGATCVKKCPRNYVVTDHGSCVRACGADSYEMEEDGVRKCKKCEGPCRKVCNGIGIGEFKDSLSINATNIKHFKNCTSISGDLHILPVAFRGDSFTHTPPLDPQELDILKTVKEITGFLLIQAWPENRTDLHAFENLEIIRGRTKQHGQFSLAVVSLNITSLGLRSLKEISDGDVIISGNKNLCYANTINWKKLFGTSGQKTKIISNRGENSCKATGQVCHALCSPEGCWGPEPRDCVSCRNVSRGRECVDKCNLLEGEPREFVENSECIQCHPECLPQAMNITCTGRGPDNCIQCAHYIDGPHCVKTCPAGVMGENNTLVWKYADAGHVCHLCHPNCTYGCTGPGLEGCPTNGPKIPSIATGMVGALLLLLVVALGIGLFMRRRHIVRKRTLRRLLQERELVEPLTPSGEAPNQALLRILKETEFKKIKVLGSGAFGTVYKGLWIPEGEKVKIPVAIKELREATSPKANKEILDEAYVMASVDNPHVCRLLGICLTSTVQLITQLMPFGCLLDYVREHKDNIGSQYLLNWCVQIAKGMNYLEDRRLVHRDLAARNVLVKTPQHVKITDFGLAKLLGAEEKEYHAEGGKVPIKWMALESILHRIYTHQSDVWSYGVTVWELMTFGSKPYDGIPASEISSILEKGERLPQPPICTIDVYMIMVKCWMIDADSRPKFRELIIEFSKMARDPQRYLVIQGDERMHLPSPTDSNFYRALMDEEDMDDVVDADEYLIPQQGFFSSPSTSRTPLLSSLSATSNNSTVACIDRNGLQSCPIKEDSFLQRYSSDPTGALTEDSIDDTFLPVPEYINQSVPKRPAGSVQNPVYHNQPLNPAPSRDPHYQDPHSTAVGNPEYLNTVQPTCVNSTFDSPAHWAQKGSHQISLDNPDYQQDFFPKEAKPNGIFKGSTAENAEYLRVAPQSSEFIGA

[5] = molecular target: T1, Serine/threonine-protein kinase TNNI3K; test: Inhibition of human Myc-tagged TNNI3K autophosphorylation expressed in HEKMSR2 cells after 30 mins by DELFIA; assay type: cell-based
[6] = Selectivity index, ratio of IC50 for EGFR (unknown origin) to IC50 for human full length His/MBP-fused TNNI3K expressed in baculovirus expression system
[7] = Selectivity index, ratio of IC50 for full length His6-tagged BRAF (unknown origin) expressed in baculovirus expression system to IC50 for human full length His/MBP-fused TNNI3K expressed in baculovirus expression system
[8] = molecular target: Serine/threonine-protein kinase B-raf (Homo sapiens, UniProt P15056); test: Inhibition of full length His6-tagged BRAF (unknown origin) expressed in baculovirus expression system assessed as reduction in MEK phosphorylation by measuring ADP production by BRAMA
Chain of Serine/threonine-protein kinase B-raf (P15056 whole entry): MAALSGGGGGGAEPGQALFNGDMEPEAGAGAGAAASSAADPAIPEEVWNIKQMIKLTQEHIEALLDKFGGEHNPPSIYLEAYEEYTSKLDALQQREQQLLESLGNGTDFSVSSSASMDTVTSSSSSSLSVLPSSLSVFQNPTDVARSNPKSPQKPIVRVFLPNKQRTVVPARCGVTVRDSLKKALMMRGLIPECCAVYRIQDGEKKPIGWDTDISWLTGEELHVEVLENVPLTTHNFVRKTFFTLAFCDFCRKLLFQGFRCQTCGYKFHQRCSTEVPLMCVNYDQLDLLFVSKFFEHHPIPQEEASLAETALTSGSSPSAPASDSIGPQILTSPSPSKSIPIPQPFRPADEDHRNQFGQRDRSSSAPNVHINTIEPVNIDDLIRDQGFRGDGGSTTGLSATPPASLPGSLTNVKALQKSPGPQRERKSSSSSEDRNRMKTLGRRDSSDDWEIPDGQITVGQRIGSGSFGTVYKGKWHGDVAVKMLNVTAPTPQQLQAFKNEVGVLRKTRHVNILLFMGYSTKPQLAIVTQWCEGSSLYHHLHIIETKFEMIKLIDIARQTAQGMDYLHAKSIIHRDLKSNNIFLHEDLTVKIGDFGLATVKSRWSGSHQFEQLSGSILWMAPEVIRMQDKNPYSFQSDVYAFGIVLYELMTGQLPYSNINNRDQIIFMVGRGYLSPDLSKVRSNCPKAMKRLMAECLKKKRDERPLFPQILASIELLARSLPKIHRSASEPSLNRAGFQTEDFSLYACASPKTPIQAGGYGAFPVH

Blood [9] = test: Drug uptake in mouse blood at 100 mg/kg/day administered through diet; assay type: ADME, organism-based; settings: in vivo, read-out: Drug uptake
Blood [10] = test: Unbound drug level in mouse blood at 100 mg/kg/day administered through diet; assay type: ADME, organism-based; settings: in vivo
[11] = Half life in Sprague-Dawley rat plasma at 2 mg/kg, po administered as gastric bolus dose or 1 mg/kg, iv administered as 30 mins infusion by LC-MS/MS analysis; assay type: ADME, organism-based
Heart = test: Drug uptake in mouse heart at 100 mg/kg/day administered through diet; assay type: ADME, organism-based; settings: in vivo, read-out: Drug uptake
[12] = Fraction unbound in mouse plasma; assay type: ADME, cell-free
[13] = Volume of distribution at steady state in Sprague-Dawley rat plasma at 2 mg/kg, po administered as gastric bolus dose or 1 mg/kg, iv administered as 30 mins infusion by LC-MS/MS analysis; assay type: ADME, organism-based; settings: read-out: Vdss

bioavailability [1] [%]	IC50 [2] [µM]	AUC/dose (Rattus norvegicus) [kg·h/L]	clearance [3] [mL/min/kg]	SMILES	also measured
30	0.079	0.096	52	CNS(=O)(=O)c1ccc(N(C)C)c(Nc2cc(Nc3ccc(Cl)cc3)ncn2)c1	
37		0.32	20	CNS(=O)(=O)c1ccc(OCC(F)(F)F)c(Nc2cc(Nc3ccc(Cl)cc3)ncn2)c1	
		1.1		CNS(=O)(=O)c1ccc(F)c(Nc2cc(Nc3ccc(Cl)cc3)ncn2)c1	
100	0.079	0.71	23	CNS(=O)(=O)c1cccc(Nc2cc(Nc3ccc(Cl)cc3)ncn2)c1	IC50 [4]: 0.013 µM
84		0.86	16	CNS(=O)(=O)c1ccc(OC(F)(F)F)c(Nc2cc(Nc3ccc(Cl)cc3)ncn2)c1	IC50 [5]: 0.32 µM
55		0.7	14	CNS(=O)(=O)c1ccc(Cl)c(Nc2cc(Nc3ccc(Cl)cc3)ncn2)c1	
52		2.1	4.5	CNS(=O)(=O)c1ccc(SC)c(Nc2cc(Nc3ccc(Cl)cc3)ncn2)c1	
100		0.69	26	CNS(=O)(=O)c1ccc(OC)c(Nc2cc(Nc3ccc(Cl)cc3)ncn2)c1	
	5			CNS(=O)(=O)c1cccc(Nc2ccnc(Nc3cccc(C)c3)c2)c1	
65	0.02	0.67	16	CNS(=O)(=O)c1cccc(Nc2cc(Nc3ccc(Cl)cn3)ncn2)c1	Ratio IC50 [6]: 32; IC50 [4]: 0.63 µM
20	0.079	0.064	52	CNS(=O)(=O)c1cccc(Nc2cc(Nc3cccc(Cl)c3)ncn2)c1	
	0.05			CNS(=O)(=O)c1cccc(Nc2ncnc(Nc3ccc(Cl)cc3)n2)c1	
67		0.91	12	CNS(=O)(=O)c1ccc(OC(F)(F)F)c(Nc2cc(Nc3ccc(Cl)cn3)ncn2)c1	IC50 [5]: 0.063 µM
	0.63			CNS(=O)(=O)c1cccc(Nc2cc(Nc3ccccc3F)ncn2)c1	
				CNS(=O)(=O)c1cccc(Nc2cc(Nc3cccc([N+](=O)[O-])c3)ncn2)c1	IC50 [4]: 0.004 µM; IC50 [5]: 0.5 µM
	0.02			CNS(=O)(=O)c1cccc(Nc2ncnc(Nc3cccc(C)c3)n2)c1	
	0.063			CNS(=O)(=O)c1cccc(Nc2cc(Nc3ccccc3)ncn2)c1	
	≤ 0.01	0.27		CNS(=O)(=O)c1ccc(S(=O)(=O)C(C)C)c(Nc2cc(Nc3ccc(Cl)cn3)ncn2)c1	Ratio IC50 [7]: >=50; IC50 [8]: 0.5 µM
	0.16			CNS(=O)(=O)c1cccc(Nc2cc(Nc3ccc(OC)cc3)ncn2)c1	
	8			CNS(=O)(=O)c1cccc(N(C)c2cc(Nc3cccc(C)c3)ncn2)c1	Ratio IC50 [6]: 0.25; IC50 [4]: 2 µM

bioavailability [1] [%]	IC50 [2] [µM]	AUC/dose (Rattus norvegicus) [kg·h/L]	clearance [3] [mL/min/kg]	SMILES	also measured
	0.013	0.76		CNS(=O)(=O)c1ccc(S(C)(=O)=O)c(Nc2cc(Nc3ccc(Cl)cn3)ncn2)c1	Ratio IC50 [7]: 15; IC50 [8]: 0.2 µM
	0.63			CNS(=O)(=O)c1cccc(Nc2ccnc(Nc3cccc(C)c3)n2)c1	
	0.079			CNS(=O)(=O)c1cccc(Nc2cc(Nc3ccc(S(C)(=O)=O)cc3)ncn2)c1	
	0.063			CNS(=O)(=O)c1cccc(Nc2cc(Nc3cccc(OC)c3)ncn2)c1	
	0.05			CNS(=O)(=O)c1cccc(Nc2cc(Nc3cccc(C(C)C)c3)ncn2)c1	Ratio IC50 [6]: 0.5; IC50 [4]: 0.025 µM
	0.8			CNc1cc(Nc2cccc(S(=O)(=O)NC)c2)ncn1	
	1.3			CNS(=O)(=O)c1cccc(Nc2cc(Nc3ccccc3C)ncn2)c1	
	2			CNS(=O)(=O)c1cccc(Nc2cc(N(C)c3cccc(C)c3)ncn2)c1	Ratio IC50 [6]: 0.01; IC50 [4]: 0.02 µM
99	≤ 0.01	2.3	7.4	CNS(=O)(=O)c1ccc(OCC(F)(F)F)c(Nc2cc(Nc3ccc(Cl)cn3)ncn2)c1	IC50 [8]: 0.013 µM
	≤ 0.01	0.076		CNS(=O)(=O)c1ccc(S(=O)(=O)C(C)(C)C)c(Nc2cc(Nc3ccc(Cl)cn3)ncn2)c1	Ratio IC50 [7]: >=200; IC50 [8]: 2 µM
33	0.079	0.1	53	CNS(=O)(=O)c1cccc(Nc2cc(Nc3cccc(Br)c3)ncn2)c1	
48	≤ 0.01	0.56	14	CCS(=O)(=O)c1ccc(S(=O)(=O)NC)cc1Nc1cc(Nc2ccc(Cl)cn2)ncn1	Ratio IC50 [7]: >=25; IC50 [8]: 0.25 µM; IC50 [4]: > 25 µM; concentration (Blood [9]): 400 to 1600 nM; Drug uptake(free) (Blood [10]): 14 to 56 nM; half-life [11]: 2.3 h; concentration (Heart): 1100 nM; fraction unbound [12]: 0.035; IC50 [5]: 0.008 µM; Vd [13]: 1.9 L/kg
19	0.032	0.037	86	CNS(=O)(=O)c1cccc(Nc2cc(Nc3cccc(C)c3)ncn2)c1	Ratio IC50 [6]: 0.1; IC50 [4]: 0.003 µM
	0.2			CNS(=O)(=O)c1cccc(Nc2cc(Nc3cccc(S(C)(=O)=O)c3)ncn2)c1	
	0.016			CNS(=O)(=O)c1cccc(Nc2cc(Nc3ccc(C(F)(F)F)cn3)ncn2)c1	
75	≤ 0.01	1.3	9.9	CNS(=O)(=O)c1ccc(OC)c(Nc2cc(Nc3ccc(Cl)cn3)ncn2)c1	Ratio IC50 [7]: >=2; IC50 [8]: 0.02 µM
	0.079			CNS(=O)(=O)c1cccc(Nc2cc(Nc3ccc(C(F)(F)F)cc3)ncn2)c1	
	3.2			CNS(=O)(=O)c1cccc(Nc2cc(Nc3ccccc3OC)ncn2)c1	
	0.079			CNS(=O)(=O)c1cccc(Nc2cc(Nc3ccc(C)cc3)ncn2)c1	
	0.079			CNS(=O)(=O)c1cccc(Nc2cc(Nc3cccc(S(=O)(=O)NC)c3)ncn2)c1	Ratio IC50 [6]: 20; IC50 [4]: 1.6 µM

Reference: ChEMBL document CHEMBL4020849, “4,6-Diaminopyrimidines as Highly Preferred Troponin I-Interacting Kinase (TNNI3K) Inhibitors” (J Med Chem, 2018)
